Key:
Melanocortin receptor 5 [1] = target: T1, Melanocortin receptor 5 (Homo sapiens, UniProt P33032); assay: Agonist activity at human MC5R stably overexpressing in HEK293 cells assessed as intracellular acumulation of cAMP level incubated for 30 mins measured by microbeta 2 microplate counter analysis; format: functional, cell-based
Melanocortin receptor 4 [2] = target: T2, Melanocortin receptor 4 (Homo sapiens, UniProt P32245); assay: Agonist activity at human MC4R stably overexpressing in HEK293 cells assessed as intracellular acumulation of cAMP level incubated for 30 mins measured by microbeta 2 microplate counter analysis; format: functional, cell-based
T2 sequence (P32245 whole entry): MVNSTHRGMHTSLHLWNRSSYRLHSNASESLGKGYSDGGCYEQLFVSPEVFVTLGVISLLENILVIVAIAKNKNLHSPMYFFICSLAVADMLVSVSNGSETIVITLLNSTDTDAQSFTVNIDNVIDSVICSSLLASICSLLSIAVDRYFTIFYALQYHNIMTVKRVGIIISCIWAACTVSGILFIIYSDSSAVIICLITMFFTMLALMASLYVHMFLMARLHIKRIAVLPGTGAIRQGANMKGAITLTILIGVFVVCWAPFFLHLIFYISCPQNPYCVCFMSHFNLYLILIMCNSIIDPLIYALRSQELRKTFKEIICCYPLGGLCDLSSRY

Melanocortin receptor 5 [3] = target: T1, Melanocortin receptor 5; assay: Displacement of [I125] NDP-alpha-MSH from human MC5R stably overexpressing in HEK293 cells in presence of [I125] labeled NDP-alpha-MSH treated at 10 uM for 40 mins measured by microbeta 2 microplate counter analysis; format: cell-based
[4] = target: T3, Melanocyte-stimulating hormone receptor (Homo sapiens, UniProt Q01726); assay: Agonist activity at human MC1R stably overexpressing in HEK293 cells assessed as intracellular acumulation of cAMP level incubated for 30 mins measured by microbeta 2 microplate counter analysis; format: functional, cell-based
Target sequence in this assay (Q01726 whole entry): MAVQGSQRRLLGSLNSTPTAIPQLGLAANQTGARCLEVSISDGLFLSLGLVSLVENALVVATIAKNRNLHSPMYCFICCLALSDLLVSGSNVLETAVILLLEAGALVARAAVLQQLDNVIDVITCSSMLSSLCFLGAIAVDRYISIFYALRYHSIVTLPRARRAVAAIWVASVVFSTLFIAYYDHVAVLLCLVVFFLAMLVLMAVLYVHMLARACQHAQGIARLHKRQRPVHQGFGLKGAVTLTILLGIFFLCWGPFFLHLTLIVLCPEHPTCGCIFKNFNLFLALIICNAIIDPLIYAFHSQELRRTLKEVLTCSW

Melanocortin receptor 3 [5] = target: T4, Melanocortin receptor 3 (Homo sapiens, UniProt P41968); assay: Displacement of [I125] NDP-alpha-MSH from human MC3R stably overexpressing in HEK293 cells in presence of [I125] labeled NDP-alpha-MSH treated at 10 uM for 40 mins measured by microbeta 2 microplate counter analysis; format: cell-based
T4 sequence (P41968 whole entry): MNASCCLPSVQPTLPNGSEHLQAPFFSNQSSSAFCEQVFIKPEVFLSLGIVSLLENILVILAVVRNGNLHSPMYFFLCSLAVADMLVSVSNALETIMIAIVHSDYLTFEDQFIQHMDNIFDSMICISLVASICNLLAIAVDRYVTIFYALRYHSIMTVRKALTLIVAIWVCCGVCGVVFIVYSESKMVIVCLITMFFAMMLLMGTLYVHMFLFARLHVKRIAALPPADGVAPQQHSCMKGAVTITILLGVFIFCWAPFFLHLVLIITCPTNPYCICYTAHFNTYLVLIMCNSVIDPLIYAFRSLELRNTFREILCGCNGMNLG

[6] = target: T3, Melanocyte-stimulating hormone receptor; assay: Displacement of [I125] NDP-alpha-MSH from human MC1R stably overexpressing in HEK293 cells in presence of [I125] labeled NDP-alpha-MSH treated at 10 uM for 40 mins measured by microbeta 2 microplate counter analysis; format: cell-based
Target sequence in this assay (Q01726 whole entry): as the sequence (Q01726 whole entry) above

Melanocortin receptor 3 [7] = target: T4, Melanocortin receptor 3; assay: Agonist activity at human MC3R stably overexpressing in HEK293 cells assessed as intracellular acumulation of cAMP level incubated for 30 mins measured by microbeta 2 microplate counter analysis; format: functional, cell-based
Melanocortin receptor 4 [8] = target: T2, Melanocortin receptor 4; assay: Displacement of [I125] NDP-alpha-MSH from human MC4R stably overexpressing in HEK293 cells in presence of [I125] labeled NDP-alpha-MSH treated at 10 uM for 40 mins measured by microbeta 2 microplate counter analysis; format: cell-based
Melanocortin receptor 5 [9] = target: T1, Melanocortin receptor 5; assay: Displacement of [I125] NDP-alpha-MSH from human MC5R stably overexpressing in HEK293 cells in presence of [I125] labeled NDP-alpha-MSH treated at 10 uM for 40 mins measured by microbeta 2 microplate counter analysis relative to control; format: cell-based
Melanocortin receptor 5 [10] = target: T1, Melanocortin receptor 5; assay: Agonist activity at human MC5R stably overexpressing in HEK293 cells assessed as intracellular acumulation of cAMP level incubated at 10 uM for 30 mins measured by microbeta 2 microplate counter analysis relative to MT-II; format: functional, cell-based; details: filed as agonist
[11] = target: T3, Melanocyte-stimulating hormone receptor; assay: Agonist activity at human MC1R stably overexpressing in HEK293 cells assessed as intracellular acumulation of cAMP level incubated at 10 uM for 30 mins measured by microbeta 2 microplate counter analysis relative to MT-II; format: functional, cell-based; details: filed as agonist
Target sequence in this assay (Q01726 whole entry, looked up): as the sequence (Q01726 whole entry) above

Melanocortin receptor 3 [12] = target: T4, Melanocortin receptor 3; assay: Agonist activity at human MC3R stably overexpressing in HEK293 cells assessed as intracellular acumulation of cAMP level incubated at 10 uM for 30 mins measured by microbeta 2 microplate counter analysis relative to MT-II; format: functional, cell-based; details: filed as agonist
[13] = target: T3, Melanocyte-stimulating hormone receptor; assay: Displacement of [I125] NDP-alpha-MSH from human MC1R stably overexpressing in HEK293 cells in presence of [I125] labeled NDP-alpha-MSH treated at 10 uM for 40 mins measured by microbeta 2 microplate counter analysis relative to control; format: cell-based
Target sequence in this assay (Q01726 whole entry, looked up): as the sequence (Q01726 whole entry) above

Melanocortin receptor 3 [14] = target: T4, Melanocortin receptor 3; assay: Displacement of [I125] NDP-alpha-MSH from human MC3R stably overexpressing in HEK293 cells in presence of [I125] labeled NDP-alpha-MSH treated at 10 uM for 40 mins measured by microbeta 2 microplate counter analysis relative to control; format: cell-based; details: filed as agonist
[15] = target: T3, Melanocyte-stimulating hormone receptor; assay: Displacement of [I125] NDP-alpha-MSH from human MC1R stably overexpressing in HEK293 cells in presence of [I125] labeled NDP-alpha-MSH treated for 40 mins measured by microbeta 2 microplate counter analysis; format: cell-based
Target sequence in this assay (Q01726 whole entry): as above

Melanocortin receptor 4 [16] = target: T2, Melanocortin receptor 4; assay: Displacement of [I125] NDP-alpha-MSH from human MC4R stably overexpressing in HEK293 cells in presence of [I125] labeled NDP-alpha-MSH treated for 40 mins measured by microbeta 2 microplate counter analysis; format: cell-based
Melanocortin receptor 5 [17] = target: T1, Melanocortin receptor 5; assay: Displacement of [I125] NDP-alpha-MSH from human MC5R stably overexpressing in HEK293 cells in presence of [I125] labeled NDP-alpha-MSH treated for 40 mins measured by microbeta 2 microplate counter analysis; format: cell-based
Melanocortin receptor 3 [18] = target: T4, Melanocortin receptor 3; assay: Displacement of [I125] NDP-alpha-MSH from human MC3R stably overexpressing in HEK293 cells in presence of [I125] labeled NDP-alpha-MSH treated for 40 mins measured by microbeta 2 microplate counter analysis; format: cell-based

T1 sequence (P33032 whole entry): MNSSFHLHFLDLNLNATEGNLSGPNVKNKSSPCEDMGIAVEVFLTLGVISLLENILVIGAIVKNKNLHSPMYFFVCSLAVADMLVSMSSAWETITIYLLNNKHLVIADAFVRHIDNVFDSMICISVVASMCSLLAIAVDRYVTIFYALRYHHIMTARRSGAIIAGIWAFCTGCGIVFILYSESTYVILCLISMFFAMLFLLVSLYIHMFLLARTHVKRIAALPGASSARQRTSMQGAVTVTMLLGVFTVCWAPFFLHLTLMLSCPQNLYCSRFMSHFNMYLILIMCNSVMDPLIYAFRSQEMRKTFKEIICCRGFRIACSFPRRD

`CCCC[C@H](NC(=O)[C@@H](Cc1ccccc1)NC(=O)[C@H](Cc1c[nH]cn1)NC(C)=O)C(=O)N[C@H]1Cc2ccccc2CNC1=O` was tested, and the EC50 (Melanocortin receptor 5 [1]; hek293) was “Not Active”, the EC50 (Melanocortin receptor 4 [2]; hek293) was “Not Active” and the IC50 (Melanocortin receptor 5 [3]) was “Not Active”. The EC50 ([4]; hek293) was “Not Active”, the IC50 (Melanocortin receptor 3 [5]) was “Not Active” and the IC50 [6] was “Not Active”. The EC50 (Melanocortin receptor 3 [7]; hek293) was “Not Active” and the IC50 (Melanocortin receptor 4 [8]) was “Not Active”.

`CC(=O)N[C@@H](Cc1cnc[nH]1)C(=O)N[C@H](Cc1ccccc1)C(=O)N[C@@H](CCCNC(=N)N)C(=O)N[C@@H](Cc1c[nH]c2ccccc12)C(N)=O` showed an Activity (Melanocortin receptor 5 [9]; filed as agonist) of 100%, an Emax (Melanocortin receptor 5 [10]) of 63% and an Emax [11] of 100%. It also gave an Emax (Melanocortin receptor 3 [12]) of 100%.

For `CC(=O)N[C@@H](Cc1c[nH]cn1)C(=O)N[C@H](Cc1ccccc1)C(=O)N[C@@H](CCCNC(=N)N)C(=O)N[C@H]1Cc2c([nH]c3ccccc23)CNC1=O`, the Activity ([13]; filed as agonist) was 83%, the Activity (Melanocortin receptor 5 [9]) was 39% and the Activity (Melanocortin receptor 3 [14]) was 61%. For the same compound, the IC50 [15] was 34 nM, the EC50 (Melanocortin receptor 5 [1]; read-out: EC50) was 165 nM and the EC50 (Melanocortin receptor 4 [2]; read-out: EC50) was 171 nM. For the same compound, the IC50 (Melanocortin receptor 4 [16]) was 166 nM, the EC50 ([4]; read-out: EC50) was 11.2 nM and the EC50 (Melanocortin receptor 3 [7]; read-out: EC50) was 166 nM. It also gave an IC50 (Melanocortin receptor 5 [17]) of over 1000 nM, an Emax (Melanocortin receptor 5 [10]) of 61% and an Emax [11] of 100%. For the same compound, the IC50 (Melanocortin receptor 3 [18]) was 165 nM and the Emax (Melanocortin receptor 3 [12]) was 66%.

In the case of `CCCC[C@H](NC(=O)[C@@H](Cc1ccccc1)NC(=O)[C@H](Cc1c[nH]cn1)NC(C)=O)C(=O)N[C@H]1Cc2c([nH]c3ccccc23)CNC1=O`, the EC50 (Melanocortin receptor 5 [1]; hek293) is reported as “Not Active”, the EC50 (Melanocortin receptor 4 [2]; read-out: EC50) is reported as over 1000 nM and the IC50 (Melanocortin receptor 5 [3]) is reported as “Not Active”. The EC50 ([4]; read-out: EC50) was over 1000 nM, the IC50 (Melanocortin receptor 3 [5]) was “Not Active” and the IC50 [6] was “Not Active”. The EC50 (Melanocortin receptor 3 [7]; read-out: EC50) was over 1000 nM and the IC50 (Melanocortin receptor 4 [8]) was “Not Active”.

For `CC(=O)N[C@@H](Cc1c[nH]cn1)C(=O)N[C@H](Cc1ccccc1)C(=O)N[C@@H](CCCNC(=N)N)C(=O)N[C@H]1Cn2nncc2CNC1=O`, the Activity [13] was 21%, the IC50 [15] was 9.6 nM and the EC50 (Melanocortin receptor 5 [1]; hek293) was “Not Active”. The EC50 (Melanocortin receptor 4 [2]; hek293) was “Not Active”, the EC50 ([4]; read-out: EC50) was 136 nM and the IC50 (Melanocortin receptor 3 [5]) was “Not Active”. It also gave an EC50 (Melanocortin receptor 3 [7]; read-out: EC50) of over 1000 nM, an IC50 (Melanocortin receptor 5 [17]) of over 1000 nM and an Emax [11] of 96%. For the same compound, the IC50 (Melanocortin receptor 4 [8]) was “Not Active”.

With `CCCC[C@H](NC(C)=N)C(=O)N[C@@H]1NCCCC[C@@H](C(N)=O)NC(=O)[C@H](Cc2c[nH]c3ccccc23)NC(=O)[C@H](CCCNC(=N)N)NC(=O)[C@H](Cc2ccccc2)NC(=O)[C@H](Cc2cnc[nH]2)NC1=O` the Activity ([13]; filed as agonist) was 100%, the Activity (Melanocortin receptor 5 [9]; filed as agonist) was 100% and the Activity (Melanocortin receptor 3 [14]) was 100%. For the same compound, the IC50 [15] was 1 nM, the EC50 (Melanocortin receptor 5 [1]; read-out: EC50) was 6 nM and the EC50 (Melanocortin receptor 4 [2]; read-out: EC50) was 2 nM. The EC50 ([4]; read-out: EC50) was 1 nM, the IC50 (Melanocortin receptor 5 [17]) was 4 nM and the IC50 (Melanocortin receptor 3 [18]) was 2 nM.

For `CC(=O)N[C@@H](Cc1c[nH]cn1)C(=O)N[C@H](Cc1ccc(C(F)(F)F)cc1)C(=O)N[C@@H](CCCNC(=N)N)C(=O)N[C@H]1Cc2c([nH]c3ccccc23)CNC1=O`, the Activity [13] was 35%, the IC50 [15] was 81 nM and the EC50 (Melanocortin receptor 5 [1]; hek293) was “Not Active”. For the same compound, the EC50 (Melanocortin receptor 4 [2]; read-out: EC50) was 4.1 nM, the IC50 (Melanocortin receptor 4 [16]) was 2.5 nM and the EC50 ([4]; read-out: EC50) was 37 nM. For the same compound, the EC50 (Melanocortin receptor 3 [7]; hek293) was “Not Active”, the IC50 (Melanocortin receptor 5 [17]) was 40 nM and the Emax [11] was 100%. For the same compound, the IC50 (Melanocortin receptor 3 [18]) was over 1000 nM.

`CCCC[C@H](NC(=O)[C@@H](Cc1ccccc1)NC(=O)[C@H](Cc1c[nH]cn1)NC(C)=O)C(=O)N[C@H]1Cn2nncc2CNC1=O` was tested, and the EC50 (Melanocortin receptor 5 [1]; hek293) was “Not Active”, the EC50 (Melanocortin receptor 4 [2]; hek293) was “Not Active” and the IC50 (Melanocortin receptor 5 [3]) was “Not Active”. The EC50 ([4]; hek293) was “Not Active”, the IC50 (Melanocortin receptor 3 [5]) was “Not Active” and the IC50 [6] was “Not Active”. The EC50 (Melanocortin receptor 3 [7]; hek293) was “Not Active” and the IC50 (Melanocortin receptor 4 [8]) was “Not Active”.

For `CC(=O)N[C@@H](Cc1c[nH]cn1)C(=O)N[C@H](Cc1ccccc1)C(=O)N[C@@H](CCCNC(=N)N)C(=O)N[C@H]1Cc2ccccc2CNC1=O`, the EC50 (Melanocortin receptor 5 [1]; hek293) was “Not Active”, the EC50 (Melanocortin receptor 4 [2]; hek293) was “Not Active” and the IC50 (Melanocortin receptor 5 [3]) was “Not Active”. The EC50 ([4]; hek293) was “Not Active”, the IC50 (Melanocortin receptor 3 [5]) was “Not Active” and the IC50 [6] was “Not Active”. For the same compound, the EC50 (Melanocortin receptor 3 [7]; hek293) was “Not Active” and the IC50 (Melanocortin receptor 4 [8]) was “Not Active”.

Reference: ChEMBL document CHEMBL5338760, “Ψ and χ Angle Constrains at the C-Terminus Trp Position of the Melanotropin Tetrapeptide Ac-His-d-Phe-Arg-Trp-NH2 Lead to Potent and Selective Agonists at hMC1R and hMC4R” (J Med Chem, 2023)
